From US7414042B2, “Method and composition for selectively inhibiting melanoma” (The Board of Trustees of The University of Illinois, priority 1995, dated 2008)
≈ marks a conversion by molar mass, not a printed value. Entries after “also recorded” stand apart in the source; their conditions may differ.

Key:
[1] = tested on: human melanoma cells (MEL-2); assay: In vivo activity against established MEL-2 melanomas in athymic mice; details: treatment from day 13, IP every third day; betulinic acid/PVP 250 mg/kg/dose, DTIC 4 mg/kg/dose
Procedure: Next, in vivo testing of betulinic acid was performed on established melanomas. In this study, treatment was withheld until day 13, by which time a palpable tumor mass was present in all mice.
In particular, with respect to FIG. 2, four-week-old athymic mice were injected with 5×10^8 MEL-2 cells subcutaneously in the right flank. Four treatment groups of five mice each were studied. In one group, the mice received 250 mg/kg/dose of IP betulinic acid/PVP every third day for six total doses initiated the day following tumor cell injection. The control group received 0.5 ml IP saline. A DTIC treatment group received 4 mg/kg/dose IP DTIC every third day from day 13 to day 28 of the study. The betulinic acid treatment group received 250 mg/kg/dose IP betulinic acid/PVP every third day from day 13 to day 27. The control and DTIC-treated mice were sacrificed and autopsied on day 36 due to their large tumor burden. The remaining mice were sacrificed and autopsied on day 41.

[2] = tested on: human melanoma cells (MEL-2); assay: In vivo activity against unestablished MEL-2 tumors in athymic mice; set-up: species or system athymic (nude) mice
Procedure: To test the in vivo ability of betulinic acid to serve as an antineoplastic agent against malignant melanoma, a series of studies was performed with athymic (nude) mice injected subcutaneously with human melanoma cells (MEL-2). The initial study investigated the activity of betulinic acid against unestablished tumors. Treatment with betulinic acid began on day 1, i.e., 24 hours, following tumor cell injection. […] Such a discovery is important for individuals who are predisposed to melanoma due to hereditary or environmental factors.
In particular, the data plotted in FIG. 1 was derived from experiments wherein four week old athymic mice were injected subcutaneously in the right flank with 3.0×10^8 UISO MEL-2 cells. UISO MEL-2 is a cell line derived from metastatic melanoma from human pleural fluid. Drug treatment was initiated on the day following tumor cell injection and continued every fourth day for a total of six doses. Four control animals received 0.5 ml intraperitoneal (IP) of PVP control solution, while treated animals (4 per group) received 50, 250 or 500 mg/kg/dose IP betulinic acid/PVP in deionized H2O. Betulinic acid was coprecipitated with PVP to increase solubility and bioavailability. The mice were weighed, and the tumors measured with a micrometer every other day throughout the study. […]

[3] = tested on: Walker 256 murine carcinosarcoma; details: cited from earlier work
Solubility in water = type: physicochemical; details: listed as betulinic acid
MEL-2 (melanoma) = assay: Cytotoxicity against cultured human melanoma cells (SRB); type: cell-based
Procedure: (§1) The plates were incubated for three days. […] Dose response studies were performed to generate ED50 values.

P-388 murine lymphocyte = details: tests conducted by the National Cancer Institute; cited from earlier work
A431 (squamous cells) = assay: Cytotoxicity against cultured human cancer cells (SRB); type: cell-based; details: Homo sapiens, A-431, 72 h; three days incubation, SRB; read-out: ED50 A431
Procedure: as §1

ZR-75-1 (breast) = assay: as above; type: cell-based; details: Homo sapiens, ZR-75-1, 72 h; three days incubation, SRB; read-out: ED50 ZR 75-1
Procedure: as §1

[4] = tested on: KB (human oral epidermoid carcinoma); assay: as above; type: cell-based
Procedure: as §1

LNCaP (prostate) = assay: as above; type: cell-based; details: Homo sapiens, LNCaP, 72 h; three days incubation, SRB; read-out: ED50 LNCaP
Procedure: as §1

BC-1 (breast) = assay: as above; type: cell-based; details: Homo sapiens, 72 h; three days incubation, SRB; read-out: ED50 BC-1
Procedure: as §1

U373 (glioma) = assay: as above; type: cell-based; details: Homo sapiens, U373 MG, 72 h; three days incubation, SRB; read-out: ED50 U373
Procedure: as §1

LU-1 (lung) = assay: as above; type: cell-based; details: Homo sapiens, 72 h, three days incubation, read-out: ED50 LU-1
Procedure: as §1

COL-2 (colon) = assay: as above; type: cell-based; details: Homo sapiens, Col2, 72 h; three days incubation, SRB; read-out: ED50 COL-2
Procedure: as §1

HT-1080 (sarcoma) = assay: as above; type: cell-based; details: Homo sapiens, HT-1080, 72 h, three days incubation, read-out: ED50 HT-1080
Procedure: as §1

MEL-3 = assay: Dose-response study, additional human melanoma cell line; type: cell-based
Procedure: (§2) Moreover, the cytotoxic response mediated by betulinic acid is not exclusively limited to the MEL-2 melanoma cell line.
as §1

MEL-1 = assay: as above; type: cell-based
Procedure: as §2, §1

MEL-4 = assay: as above; type: cell-based
Procedure: as §2, §1

human lymphocytes = assay: Formation of the 50 Kbp DNA fragment in normal cells; type: cell-based; details: 2 and 20 μg/ml, time-course
[5] = tested on: human melanoma and nonmelanoma cancer cell lines; assay: Cytotoxicity profile across the panel of human cancer cell lines; details: all Table 1 cell lines other than MEL-2
Procedure: In the following Table 1, the extracted betulinic acid and the other pure compounds were tested for cycotoxity against the following cultured human cell lines: A431 (squamous cells), BC-1 (breast), COL-2 (colon), HT-1080 (sarcoma), KB (human oral epidermoid carcinoma), LNCaP (prostate), LU-1 (lung), MEL-2 (melanoma), U373 (glioma) and ZR-75-1 (breast).
Cytotoxicity of the crude extracts and purified compounds was determined in a number of cultured human cancer cell lines. The cells were cultured in appropriate media and under standard conditions. To maintain logarithmic growth, the media were changed 24 hours prior to cytotoxic assays. On the day of the assay, the cells were harvested by trypsinization, counted, diluted in media, and added to 96-well plates containing test compounds dissolved in DMSO; the final DMSO concentration was 0.05%.
The plates were incubated for three days. Following the incubation period, the cells were fixed and stained with sulforhodamine B (SRB) dye. The bound dye was liberated with Tris base, and the OD515 was measured on an ELISA reader. The growth of the betulinic acid-treated cells was determined by the OD515 values, and the growth was compared to the OD515 values of DMSO-treated control cells. Dose response studies were performed to generate ED50 values.
The biological evaluation of the derivatives focused on the activity against human melanoma cell lines. In particular, the following betulinic acid derivatives were prepared and tested for cytotoxicity profile against human melanoma cell lines and against a number of selected nonmelanoma cell lines.

[6] = tested on: L1210 murine lymphocytic leukemia; details: 200 mg/kg; cited from earlier work

C=C(C)[C@@H]1CC[C@]2(C(=O)O)CC[C@]3(C)[C@H](CC[C@@H]4[C@@]5(C)CC[C@H](O)C(C)(C)[C@@H]5CC[C@]43C)[C@@H]12 [Compound 10, 3β-hydroxy-lup-20(29)-ene-28-oic acid]
tumor growth, established MEL-2 tumors (FIG. 2) [1]: successfully abrogated tumor growth; also recorded: significantly less than that observed in the DTIC-treated animals
tumor development, MEL-2, treatment from the day following cell injection (FIG. 2) ([2]; 250 mg/kg/dose IP betulinic acid/PVP every third day, six doses, p=0.0001): significantly inhibited tumor development
inhibition of tumor growth, nonestablished MEL-2 tumors (FIG. 1) ([2]; 50, 250, 500 mg/kg/dose IP as betulinic acid/PVP, every fourth day, six doses from day 1, p 0.001 each dose versus control): effective inhibition of tumor growth; also recorded: greater inhibition of tumor growth at the highest dose
antitumor activity, Walker 256, subsequent report ([3]; 400 mg/kg): inactive
antitumor activity, Walker 256 ([3]; 300 and 500 mg/kg body weight): dose-dependent activity
solubility in water (Solubility in water): poor solubility in water; also recorded: low water solubility
IC50 (MEL-2 (melanoma); Homo sapiens, MEL2, 72 h, three days incubation, SRB, Table 1 and text, read-out: ED50 MEL-2): ~2 mg/L (≈ 4.38 µM)
ED50 (Std. Dev.) MEL-2 (MEL-2 (melanoma); derivatives, Tables 2-6): 1.2 (0.1) μg/mL
ED50 MEL-2 (MEL-2 (melanoma); three days incubation, SRB, Table 1 and text, listed as Betulinic acid): 2.0 mg/L (≈ 4.38 µM)
antitumor activity, P-388 (P-388 murine lymphocyte): activity was not supported
IC50 (A431 (squamous cells)): > 20 mg/L
IC50 (ZR-75-1 (breast)): > 20 mg/L
IC50 ([4]; Homo sapiens, 72 h, three days incubation, SRB, Table 1, read-out: ED50 KB): > 20 mg/L
ED50 (Std. Dev.) KB ([4]; derivatives, Tables 2-6): >20 mg/L
IC50 (LNCaP (prostate)): > 20 mg/L
IC50 (BC-1 (breast)): > 20 mg/L
IC50 (U373 (glioma)): > 20 mg/L
IC50 (LU-1 (lung)): > 20 mg/L
IC50 (COL-2 (colon)): > 20 mg/L
IC50 (HT-1080 (sarcoma)): > 20 mg/L
ED50 MEL-3 (MEL-3): 3.3 mg/L (≈ 7.23 µM)
ED50 MEL-1 (MEL-1): 1.1 mg/L (≈ 2.41 µM)
ED50 MEL-4 (MEL-4): 4.8 mg/L (≈ 10.5 µM)
formation of the 50 Kbp fragment in human lymphocytes (human lymphocytes): did not demonstrate formation of the 50 Kbp fragment
ED50, other cancer cell lines tested [5]: greater than 20 μg/ml
antitumor activity, L1210 [6]: inactive
